Laboratory results reported in the NIST ThermoML archive (doi:10.1021/je800110r).

Details: Liquid, Vibrating tube method

CCCCCCCCCC [decane]
Details	mass density [kg/m3]
333.14 K, 31467 kPa	725.7
333.14 K, 31504 kPa	725.7
333.14 K, 31531 kPa	725.6
333.14 K, 31564 kPa	725.8
333.14 K, 31694 kPa	725.9
333.14 K, 31764 kPa	725.9
333.14 K, 32193 kPa	726
333.14 K, 32227 kPa	726.1
333.14 K, 32261 kPa	726.2
333.14 K, 32305 kPa	726.2
333.14 K, 32335 kPa	726.3
333.14 K, 32366 kPa	726.3
333.14 K, 32401 kPa	726.4
333.14 K, 32435 kPa	726.3
333.15 K, 358 kPa	699.5
333.15 K, 377 kPa	699.6
333.15 K, 404 kPa	699.5
333.15 K, 423 kPa	699.6
333.15 K, 440 kPa	699.5
333.15 K, 465 kPa	699.6
333.15 K, 501 kPa	699.6
333.15 K, 536 kPa	699.7
333.15 K, 563 kPa	699.6
333.15 K, 600 kPa	699.7
333.15 K, 627 kPa	699.8
333.15 K, 645 kPa	699.8
333.15 K, 672 kPa	699.8
333.15 K, 696 kPa	699.8
333.15 K, 727 kPa	699.7
333.15 K, 765 kPa	699.9
333.15 K, 1005 kPa	700.1
333.15 K, 1052 kPa	700.2
333.15 K, 1108 kPa	700.3
333.15 K, 1167 kPa	700.2
333.15 K, 1210 kPa	700.4
333.15 K, 1236 kPa	700.4
333.15 K, 1263 kPa	700.3
333.15 K, 1284 kPa	700.3
333.15 K, 1315 kPa	700.4
333.15 K, 1341 kPa	700.4
333.15 K, 1363 kPa	700.5
333.15 K, 1393 kPa	700.4
333.15 K, 1421 kPa	700.6
333.15 K, 1449 kPa	700.6
333.15 K, 1481 kPa	700.6
333.15 K, 1519 kPa	700.7
333.15 K, 1544 kPa	700.7
333.15 K, 1588 kPa	700.7
333.15 K, 1620 kPa	700.7
333.15 K, 1662 kPa	700.7
333.15 K, 1706 kPa	700.8
333.15 K, 1751 kPa	701
333.15 K, 1782 kPa	700.9
333.15 K, 1825 kPa	700.9
333.15 K, 1879 kPa	701
333.15 K, 1924 kPa	701
333.15 K, 1954 kPa	701
333.15 K, 2001 kPa	701.1
333.15 K, 2049 kPa	701.1
333.15 K, 2081 kPa	701.2
333.15 K, 2130 kPa	701.3
333.15 K, 2176 kPa	701.4
333.15 K, 2223 kPa	701.4
333.15 K, 2280 kPa	701.4
333.15 K, 2332 kPa	701.3
333.15 K, 2406 kPa	701.5
333.15 K, 2460 kPa	701.6
333.15 K, 2497 kPa	701.6
333.15 K, 2529 kPa	701.6
333.15 K, 2556 kPa	701.6
333.15 K, 2594 kPa	701.7
333.15 K, 2623 kPa	701.7
333.15 K, 2666 kPa	701.7
333.15 K, 2701 kPa	701.7
333.15 K, 2737 kPa	701.7
333.15 K, 2769 kPa	701.8
333.15 K, 2837 kPa	701.9
333.15 K, 3106 kPa	702.2
333.15 K, 3141 kPa	702.3
333.15 K, 3150 kPa	702.3
333.15 K, 3174 kPa	702.3
333.15 K, 3195 kPa	702.3
333.15 K, 3232 kPa	702.3
333.15 K, 3264 kPa	702.3
333.15 K, 3283 kPa	702.4
333.15 K, 3311 kPa	702.4
333.15 K, 3335 kPa	702.4
333.15 K, 3368 kPa	702.4
333.15 K, 3387 kPa	702.5
333.15 K, 3414 kPa	702.4
333.15 K, 3444 kPa	702.5
333.15 K, 3468 kPa	702.5
333.15 K, 3500 kPa	702.6
333.15 K, 3528 kPa	702.6
333.15 K, 3556 kPa	702.7
333.15 K, 3593 kPa	702.6
333.15 K, 3622 kPa	702.7
333.15 K, 3651 kPa	702.7
333.15 K, 3678 kPa	702.8
333.15 K, 3717 kPa	702.7
333.15 K, 3736 kPa	702.8
333.15 K, 3769 kPa	702.8
333.15 K, 3790 kPa	702.8
333.15 K, 3823 kPa	702.8
333.15 K, 3870 kPa	703
333.15 K, 3903 kPa	703
333.15 K, 3934 kPa	703
333.15 K, 3970 kPa	703
333.15 K, 3998 kPa	703.2
333.15 K, 4018 kPa	703.1
333.15 K, 4043 kPa	703.1
333.15 K, 4068 kPa	703.1
333.15 K, 4097 kPa	703.1
333.15 K, 4127 kPa	703.1
333.15 K, 4159 kPa	703.3
333.15 K, 4185 kPa	703.1
333.15 K, 4204 kPa	703.1
333.15 K, 4227 kPa	703.2
333.15 K, 4258 kPa	703.3
333.15 K, 4277 kPa	703.4
333.15 K, 4305 kPa	703.4
333.15 K, 4337 kPa	703.5
333.15 K, 4365 kPa	703.4
333.15 K, 4394 kPa	703.5
333.15 K, 4422 kPa	703.5
333.15 K, 4448 kPa	703.5
333.15 K, 4474 kPa	703.6
333.15 K, 4505 kPa	703.5
333.15 K, 4527 kPa	703.6
333.15 K, 4547 kPa	703.5
333.15 K, 4580 kPa	703.6
333.15 K, 4599 kPa	703.6
333.15 K, 4631 kPa	703.7
333.15 K, 4657 kPa	703.7
333.15 K, 4686 kPa	703.7
333.15 K, 4710 kPa	703.6
333.15 K, 4738 kPa	703.8
333.15 K, 4760 kPa	703.6
333.15 K, 4781 kPa	703.9
333.15 K, 4846 kPa	703.9
333.15 K, 4874 kPa	704
333.15 K, 4903 kPa	703.9
333.15 K, 4957 kPa	704.1
333.15 K, 4981 kPa	704.1
333.15 K, 5033 kPa	704.1
333.15 K, 5058 kPa	704
333.15 K, 5078 kPa	704.2
333.15 K, 5105 kPa	704.2
333.15 K, 5125 kPa	704.1
333.15 K, 5153 kPa	704.1
333.15 K, 5182 kPa	704.1
333.15 K, 5207 kPa	704.3
333.15 K, 5223 kPa	704.3
333.15 K, 5253 kPa	704.2
333.15 K, 5272 kPa	704.3
333.15 K, 5288 kPa	704.2
333.15 K, 5306 kPa	704.4
333.15 K, 5324 kPa	704.3
333.15 K, 5342 kPa	704.4
333.15 K, 5361 kPa	704.3
333.15 K, 5380 kPa	704.3
333.15 K, 5399 kPa	704.4
333.15 K, 5413 kPa	704.4
333.15 K, 5434 kPa	704.4
333.15 K, 5450 kPa	704.5
333.15 K, 5470 kPa	704.5
333.15 K, 5498 kPa	704.5
333.15 K, 5514 kPa	704.6
333.15 K, 5530 kPa	704.6
333.15 K, 5548 kPa	704.5
333.15 K, 5567 kPa	704.7
333.15 K, 5637 kPa	704.6
333.15 K, 5652 kPa	704.6
333.15 K, 5669 kPa	704.7
333.15 K, 5690 kPa	704.7
333.15 K, 5721 kPa	704.7
333.15 K, 5735 kPa	704.7
333.15 K, 6140 kPa	705.1
333.15 K, 6164 kPa	705
333.15 K, 6191 kPa	705.1
333.15 K, 6212 kPa	705.1
333.15 K, 6234 kPa	705.2
333.15 K, 6252 kPa	705.2
333.15 K, 6280 kPa	705.2
333.15 K, 6299 kPa	705.2
333.15 K, 6323 kPa	705.2
333.15 K, 6345 kPa	705.3
333.15 K, 6367 kPa	705.3
333.15 K, 6389 kPa	705.2
333.15 K, 6418 kPa	705.4
333.15 K, 6437 kPa	705.3
333.15 K, 6464 kPa	705.3
333.15 K, 6483 kPa	705.4
333.15 K, 6513 kPa	705.5
333.15 K, 6533 kPa	705.4
333.15 K, 6560 kPa	705.5
333.15 K, 6595 kPa	705.5
333.15 K, 6622 kPa	705.6
333.15 K, 6882 kPa	705.7
333.15 K, 6909 kPa	705.8
333.15 K, 6935 kPa	705.8
333.15 K, 6958 kPa	706
333.15 K, 6985 kPa	705.9
333.15 K, 7028 kPa	705.9
333.15 K, 7059 kPa	706
333.15 K, 7087 kPa	706
333.15 K, 7110 kPa	706
333.15 K, 7135 kPa	705.9
333.15 K, 7164 kPa	706
333.15 K, 7188 kPa	706
333.15 K, 7209 kPa	706.1
333.15 K, 7243 kPa	706
333.15 K, 7268 kPa	706.2
333.15 K, 7306 kPa	706.1
333.15 K, 7344 kPa	706.2
333.15 K, 8096 kPa	706.9
333.15 K, 8122 kPa	706.9
333.15 K, 8147 kPa	707
333.15 K, 8166 kPa	707
333.15 K, 8186 kPa	707
333.15 K, 8211 kPa	707
333.15 K, 8236 kPa	707
333.15 K, 8262 kPa	707
333.15 K, 8292 kPa	707
333.15 K, 8315 kPa	707
333.15 K, 8335 kPa	707
333.15 K, 8358 kPa	707
333.15 K, 8381 kPa	707.2
333.15 K, 8505 kPa	707.3
333.15 K, 8536 kPa	707.2
333.15 K, 8561 kPa	707.4
333.15 K, 8613 kPa	707.4
333.15 K, 8638 kPa	707.3
333.15 K, 8740 kPa	707.4
333.15 K, 8795 kPa	707.5
333.15 K, 8818 kPa	707.7
333.15 K, 8851 kPa	707.6
333.15 K, 8872 kPa	707.6
333.15 K, 8900 kPa	707.6
333.15 K, 8924 kPa	707.6
333.15 K, 9353 kPa	708
333.15 K, 9380 kPa	708.2
333.15 K, 9411 kPa	708.1
333.15 K, 9435 kPa	708.2
333.15 K, 9465 kPa	708.1
333.15 K, 9493 kPa	708.1
333.15 K, 9570 kPa	708.3
333.15 K, 9598 kPa	708.2
333.15 K, 9623 kPa	708.2
333.15 K, 9648 kPa	708.3
333.15 K, 9680 kPa	708.2
333.15 K, 9709 kPa	708.3
333.15 K, 9849 kPa	708.4
333.15 K, 9874 kPa	708.5
333.15 K, 9908 kPa	708.6
333.15 K, 9931 kPa	708.6
333.15 K, 9958 kPa	708.6
333.15 K, 9981 kPa	708.6
333.15 K, 10004 kPa	708.6
333.15 K, 10023 kPa	708.6
333.15 K, 10054 kPa	708.6
333.15 K, 10081 kPa	708.7
333.15 K, 10109 kPa	708.7
333.15 K, 10145 kPa	708.8
333.15 K, 10175 kPa	708.9
333.15 K, 10207 kPa	708.8
333.15 K, 10231 kPa	708.8
333.15 K, 10260 kPa	708.8
333.15 K, 10298 kPa	708.9
333.15 K, 10331 kPa	708.7
333.15 K, 10354 kPa	708.9
333.15 K, 10384 kPa	709
333.15 K, 10403 kPa	708.9
